Laboratory results: PubChem BioAssay (NCI)
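48-hour exposure; five concentrations; linearly interpolated endpoints. The concentration for 50% growth inhibition is given as GI50. Definition used: TGI = concentration required for complete inhibition of growth.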

Tests used:
Test in all cases: growth of human tumour cells (NCI), 48 h
SW-620 colon = system: SW-620 colon
HOP-92 NSCLC = system: HOP-92 NSCLC
KM12 colon = system: KM12 colon
MCF7 breast = system: MCF7 breast
UACC-257 melanoma = system: UACC-257 melanoma
HT29 colon = system: HT29 colon
SK-MEL-5 melanoma = system: SK-MEL-5 melanoma
OVCAR-5 ovarian = system: OVCAR-5 ovarian
NCI-H460 lung = system: NCI-H460 lung
SF-539 CNS = system: SF-539 CNS
IGROV1 ovarian = system: IGROV1 ovarian
ACHN renal = system: ACHN renal
HCC-2998 colon = system: HCC-2998 colon
HCT-116 colon = system: HCT-116 colon
MOLT-4 leukemia = system: MOLT-4 leukemia
MDA-MB-231 breast = system: MDA-MB-231 breast
SN12C renal = system: SN12C renal
MDA-MB-435 = system: MDA-MB-435
NCI-H522 lung = system: NCI-H522 lung
CAKI-1 renal = system: CAKI-1 renal
BT-549 breast = system: BT-549 breast
DU-145 prostate = system: DU-145 prostate
OVCAR-4 ovarian = system: OVCAR-4 ovarian
A549 NSCLC = system: A549 NSCLC
HL-60(TB) leukemia = system: HL-60(TB) leukemia
SR leukemia = system: SR leukemia
SNB-19 CNS = system: SNB-19 CNS
SF-295 CNS = system: SF-295 CNS
OVCAR-8 ovarian = system: OVCAR-8 ovarian
EKVX NSCLC = system: EKVX NSCLC
HS 578T breast = system: HS 578T breast
PC-3 prostate = system: PC-3 prostate
SF-268 CNS = system: SF-268 CNS
U251 CNS = system: U251 CNS
HOP-62 NSCLC = system: HOP-62 NSCLC
TK-10 renal = system: TK-10 renal
UO-31 renal = system: UO-31 renal
SK-MEL-2 melanoma = system: SK-MEL-2 melanoma
SK-OV-3 ovarian = system: SK-OV-3 ovarian
OVCAR-3 ovarian = system: OVCAR-3 ovarian
UACC-62 melanoma = system: UACC-62 melanoma
M14 melanoma = system: M14 melanoma
786-0 renal = system: 786-0 renal
COLO 205 colon = system: COLO 205 colon
MALME-3M melanoma = system: MALME-3M melanoma
SK-MEL-28 melanoma = system: SK-MEL-28 melanoma
T-47D breast = system: T-47D breast
LOX IMVI melanoma = system: LOX IMVI melanoma
SNB-75 CNS = system: SNB-75 CNS
NCI-H226 lung = system: NCI-H226 lung
HCT-15 colon = system: HCT-15 colon
RPMI-8226 leukemia = system: RPMI-8226 leukemia
A498 renal = system: A498 renal
MDA-MB-468 breast = system: MDA-MB-468 breast
K-562 leukemia = system: K-562 leukemia
CCRF-CEM leukemia = system: CCRF-CEM leukemia
RXF 393 renal = system: RXF 393 renal
NCI-H23 lung = system: NCI-H23 lung

Compound: COc1cc(NC(=O)c2cc(-c3ccc(F)cc3F)ccc2O)cc(OC)c1OC
- GI50 (SW-620 colon): 14.2 µM
- TGI (SW-620 colon): 29 µM
- GI50 (HOP-92 NSCLC): 3.49 µM
- TGI (HOP-92 NSCLC): 15.9 µM
- GI50 (KM12 colon): 10.2 µM
- TGI (KM12 colon): 23.3 µM
- GI50 (MCF7 breast): 9.64 µM
- TGI (MCF7 breast): 43.1 µM
- GI50 (UACC-257 melanoma): 10.2 µM
- TGI (UACC-257 melanoma): 22.4 µM
- GI50 (HT29 colon): 17.9 µM
- TGI (HT29 colon): 33.6 µM
- GI50 (SK-MEL-5 melanoma): 3.16 µM
- TGI (SK-MEL-5 melanoma): 10.6 µM
- GI50 (OVCAR-5 ovarian): 19.3 µM
- TGI (OVCAR-5 ovarian): 43.4 µM
- GI50 (NCI-H460 lung): 6.51 µM
- TGI (NCI-H460 lung): 20.2 µM
- GI50 (SF-539 CNS): 12.4 µM
- TGI (SF-539 CNS): 26.5 µM
- GI50 (IGROV1 ovarian): 10.4 µM
- TGI (IGROV1 ovarian): 30.9 µM
- GI50 (ACHN renal): 16.2 µM
- TGI (ACHN renal): 66.3 µM
- GI50 (HCC-2998 colon): 11.9 µM
- TGI (HCC-2998 colon): 25.4 µM
- GI50 (HCT-116 colon): 13.7 µM
- TGI (HCT-116 colon): 32.2 µM
- GI50 (MOLT-4 leukemia): 5.9 µM
- TGI (MOLT-4 leukemia): 36.4 µM
- GI50 (MDA-MB-231 breast): 18.8 µM
- TGI (MDA-MB-231 breast): 51.2 µM
- GI50 (SN12C renal): 6.12 µM
- TGI (SN12C renal): 22.1 µM
- GI50 (MDA-MB-435): 6.27 µM
- TGI (MDA-MB-435): 19.4 µM
- GI50 (NCI-H522 lung): 3.19 µM
- TGI (NCI-H522 lung): 13.7 µM
- GI50 (CAKI-1 renal): 7.67 µM
- TGI (CAKI-1 renal): 38.8 µM
- GI50 (BT-549 breast): 5.29 µM
- TGI (BT-549 breast): 22.6 µM
- GI50 (DU-145 prostate): 13.9 µM
- TGI (DU-145 prostate): 39.4 µM
- GI50 (OVCAR-4 ovarian): 4.45 µM
- TGI (OVCAR-4 ovarian): 31.4 µM
- GI50 (A549 NSCLC): 12.7 µM
- TGI (A549 NSCLC): 35.1 µM
- GI50 (HL-60(TB) leukemia): 6.09 µM
- TGI (HL-60(TB) leukemia): > 100 µM
- GI50 (SR leukemia): 4.2 µM
- TGI (SR leukemia): 40.5 µM
- GI50 (SNB-19 CNS): 6.63 µM
- TGI (SNB-19 CNS): 29.5 µM
- GI50 (SF-295 CNS): 15.6 µM
- TGI (SF-295 CNS): 32.6 µM
- GI50 (OVCAR-8 ovarian): 13 µM
- TGI (OVCAR-8 ovarian): > 100 µM
- GI50 (EKVX NSCLC): 12.3 µM
- TGI (EKVX NSCLC): 48.3 µM
- GI50 (HS 578T breast): 5.2 µM
- TGI (HS 578T breast): 26.9 µM
- GI50 (PC-3 prostate): 12.5 µM
- TGI (PC-3 prostate): 61.5 µM
- GI50 (SF-268 CNS): 6.03 µM
- TGI (SF-268 CNS): 28.3 µM
- GI50 (U251 CNS): 11 µM
- TGI (U251 CNS): 27.1 µM
- GI50 (HOP-62 NSCLC): 13.4 µM
- TGI (HOP-62 NSCLC): 33.2 µM
- GI50 (TK-10 renal): 12 µM
- TGI (TK-10 renal): 45.4 µM
- GI50 (UO-31 renal): 5.24 µM
- TGI (UO-31 renal): 23.5 µM
- GI50 (SK-MEL-2 melanoma): 3.01 µM
- TGI (SK-MEL-2 melanoma): 13.9 µM
- GI50 (SK-OV-3 ovarian): 8.43 µM
- TGI (SK-OV-3 ovarian): 23.9 µM
- GI50 (OVCAR-3 ovarian): 5.49 µM
- TGI (OVCAR-3 ovarian): 32.4 µM
- GI50 (UACC-62 melanoma): 3.52 µM
- TGI (UACC-62 melanoma): 13.4 µM
- GI50 (M14 melanoma): 15.3 µM
- TGI (M14 melanoma): 31.8 µM
- GI50 (786-0 renal): 19.4 µM
- TGI (786-0 renal): 46.6 µM
- GI50 (COLO 205 colon): 18.2 µM
- TGI (COLO 205 colon): 34.4 µM
- GI50 (MALME-3M melanoma): 11.4 µM
- TGI (MALME-3M melanoma): 25.9 µM
- GI50 (SK-MEL-28 melanoma): 8.98 µM
- TGI (SK-MEL-28 melanoma): 22.3 µM
- GI50 (T-47D breast): 2.73 µM
- TGI (T-47D breast): 9.31 µM
- GI50 (LOX IMVI melanoma): 13 µM
- TGI (LOX IMVI melanoma): 27.3 µM
- GI50 (SNB-75 CNS): 6.57 µM
- TGI (SNB-75 CNS): 23.8 µM
- GI50 (NCI-H226 lung): 6.92 µM
- TGI (NCI-H226 lung): 30 µM
- GI50 (HCT-15 colon): 5.63 µM
- TGI (HCT-15 colon): 24.9 µM
- GI50 (RPMI-8226 leukemia): 3.4 µM
- TGI (RPMI-8226 leukemia): 45.9 µM
- GI50 (A498 renal): 12.1 µM
- TGI (A498 renal): 25.8 µM
- GI50 (MDA-MB-468 breast): 3.98 µM
- TGI (MDA-MB-468 breast): 17 µM
- GI50 (K-562 leukemia): 5.1 µM
- TGI (K-562 leukemia): > 100 µM
- GI50 (CCRF-CEM leukemia): 6.23 µM
- TGI (CCRF-CEM leukemia): 29.7 µM
- GI50 (RXF 393 renal): 2.86 µM
- TGI (RXF 393 renal): 16.8 µM
- GI50 (NCI-H23 lung): 4.75 µM
- TGI (NCI-H23 lung): 18.9 µM
